Consider three compounds from patent US20220290106A1, “Method for Promoting Cell Proliferation, and Method for Preparing Cell Cluster” (Osaka University, priority 2019, published 2022).

In test [1] the test system is MSC cell aggregates. Briefly: Test Example 7: aggregate culture 4 of MSCs (3-DG or GO). Conditions: for cell proliferation rate of the MSC cell aggregate: cells counted Day 4 (before treatment) and Day 9, 24 hours treatment, then 10 μM ROCK inhibitor medium; for cell proliferation rate, dependence on concentration: cells counted Day 4 and Day 9, increasing 3-DG/GO concentration; for periphery of the cell aggregate (effect of promoting cell proliferation): treatment time 24 hours from Day 4, then 10 μM ROCK inhibitor medium, Day 9 vs Day 4. In kind it is cell-based. As for the experimental part: Test Example 7 was performed in the same manner as Test Example 6 (aggregate culture 3 of MSCs) except that the culture conditions were changed as follows.
(§1) Medium on Day 0: the above medium containing no ROCK inhibitor
Added reagent: 3-Deoxyglucosone (3-DG) (manufactured by Sigma-Aldrich) • Glyoxal Solution (GO) (manufactured by Sigma-Aldrich) Addition of 3-DG or GO: 3-DG or GO was added after the medium was replaced on the 4th day of culture (Day 4). 3-DG or GO treatment time: 24 hours Medium for replacement:
(§2) Day 2, 4: the above medium containing no ROCK inhibitor
(§3) Day 5, 7, 9: the above medium containing 10 μM ROCK inhibitor
Similarly to Test Example 4, the number of cells was counted on Day 4 (before the treatment) and on Day 9, and the cell proliferation rate was confirmed. As a result, the cell proliferation rate of the MSC cell aggregate was increased by culturing the MSC cell aggregate that had been treated with 3-DG or GO, like the MG treatment.

A further test deals with MSCs (monolayer culture). Briefly: Monolayer culture of MSCs under the conditions of Test Example 4. In kind it is cell-based. Conditions: monolayer culture instead of aggregate culture; presence or absence of MG and ROCK inhibitor. How it is done: Next, MSCs were cultured under the culture conditions of Test Example 4 except that the MSCs were subjected to monolayer culture instead of aggregate culture.

The test system of a further test is HepG2 aggregates. Nature of the test: Test Example 8: aggregate culture of HepG2. In kind it is cell-based, Human. To be noted: MG 1-20 mM for 24 hours from Day 3, then 10 μM ROCK inhibitor medium. How it is done: HepG2 aggregates were cultured under the following culture conditions. The number of cells was counted on Day 3 (before the addition of MG) and on Day 4, and the cell proliferation rate was confirmed.
Medium: HepG2 Hepatocellular Carcinoma Expansion Media, Human (Cellular Engineering Technologies)
Culture vessel: 24 well plate (manufactured by Coming) Culture condition: 37° C., 5% CO2 incubator Amount of medium: 0.5 mL/well Culture period: 6 days
as §1
Day 2, 3: the above medium containing no ROCK inhibitor
Day 4, 6: the above medium containing 10 μM ROCK inhibitor
Seeding density: 1.0×10^4 cells/cm^2 Replacement of medium: 0.5 mL/well, once every two days Added reagent: Methylglyoxal Solution (manufactured by Sigma-Aldrich) Methylglyoxal concentration: 0, 1, 5, 10, 15, 20 mM Addition of MG: MG was added after the medium was replaced on the 3rd day of culture (Day 3). MG treatment time: 24 hours

Test [2] concerns iPS cell aggregates (iPSCs, D2 strain). Briefly: Test Example 1: aggregate culture 1 of iPS cells. In kind it is cell-based. As for the experimental part:
iPSC aggregates were cultured under the following culture conditions. FIGS. 1A and 1B show the results. Cell: iPSCs (D2 strain, Np43) Medium: StemFit (registered trademark) A[…] (manufactured by Takara Bio Inc.) Culture vessel: 96 well V-bottom plate (MS-9096V manufactured by Sumitomo Bakelite Co., Ltd.) Cell density: 1316 cells/cm^2 (5×10^2 cells/wells) Culture condition: 37° C., 5% CO2 incubator Amount of medium: 150 μl/well Culture period: 7 clays (Methylglyoxal was added once after the medium was replaced on the 4th day of culture (Day 4).) Medium on Day 0: the above medium containing 10 μM ROCK inhibitor Replacement of medium: 150 μl/well Medium for replacement: the above medium containing no ROCK inhibitor Added reagent: Methylglyoxal Solution (product code: […], 1.17 g/mL, 16.25 M, manufactured by Sigma-Aldrich) Methylglyoxal (MG) concentration: 0, 0.1, 1, 10, 100 mM Imaging: photomicrography on the 4th day of culture (Day 4) (before addition of MG) and the 5th, 6th, and 7th day of culture (Day 5, 6, 7) (after addition of MG) FIGS. 1A and 1B show an example of photomicrographs of iPS cell aggregates before the addition of MG (Day 4) and after the addition of MG (Day 5, 6, 7). FIG. 1B is a partially enlarged view of FIG. 1A

In another test the test system is MSC aggregates. Nature of the test: Test Example 4: aggregate culture 1 of mesenchymal stem cells, cell proliferation rate. In kind it is cell-based. As for the experimental part:
MSC aggregates were cultured under the following culture conditions. The number of cells was counted on Day 4 (before the addition of MG) and on Day 9. Using the resulting number of cells, the cell proliferation rate was obtained from the following formula.
Medium: Mesenchymal Stem Cell Growth Medium 2 (manufactured by Takara Bio Inc.) Culture vessel: Micro-Space Cell Culture Plate (manufactured by Kuraray Co., Ltd), 24 well plate (manufactured by Corning) Culture condition: 37° C., 5% CO2 incubator Amount of medium: 3 mL/well Seeding density: 1.0×10^5 cell/well Culture period: 9 days
as §1
Replacement of medium: 1.5 mL/well×3, once every two days (Day 5, 7, 9) Medium for replacement:
as §2, §3
Added reagent: Methylglyoxal Solution (product code: M0252, 1.17 g/mL, 16.25 M, manufactured by Sigma-Aldrich) Methylglyoxal concentration: 0, 0.0075, 0.01, 0.0125, 0.015, 0.02 mM Addition of MG: MG was added after the medium was replaced on the 4th day of culture (Day 4). MG treatment time: 24 hours
Cell proliferation rate=(the number of cells on Day 9)/(the number of cells on […])

Test [3] deals with MSC cell aggregates. Nature of the test: Test Example 5: aggregate culture 2 of MSCs (MG 20 minutes). In kind it is cell-based. To be noted: MG 1.25-20 mM, treatment time 20 minutes on Day 4, then 10 μM ROCK inhibitor medium; Day 15 vs Day 4. How it is done:
MSC aggregates were cultured under the following culture conditions. […] Medium: Mesenchymal Stem Cell Growth Medium 2 (manufactured by Takara Bio Inc.) Culture vessel: Micro-Space Cell Culture Plate (manufactured by Kuraray Co., Ltd), 24 well plate (manufactured by Corning) Culture condition: 37° C., 5% CO2 incubator Amount of medium: 3 mL/well Seeding density: 1.0×10^5 cell/well Culture period: 15 days Medium on Day 0: the above medium containing no ROCK inhibitor Replacement of medium: 1.5 mL/well×3, once every two days Medium for replacement: Day 2: the above medium containing no ROCK inhibitor Day 4, 6, 8, 10, 12, 14: the above medium containing 10 μM ROCK inhibitor Added reagent: Methylglyoxal Solution (product code: […], 1.17 g/mL, 16.25 M, manufactured by Sigma-Aldrich) Methylglyoxal concentration: 0, 1.25, 2.5, 5, 10, 15, 20 mM Addition of MG: MG was added 20 minutes before the medium was replaced on the 4th day of culture (Day 4). MG treatment time: 20 minutes Imaging: Day 4 (before addition of MG) and Day 15

Test [4] relates to iPS cell aggregates (iPSCs, D2 strain). Briefly: Test Example 3: aggregate culture 3 of iPSCs (MG 24 hours, then ROCK inhibitor medium). In kind it is cell-based. To be noted: MG 1.25-20 mM, treatment time 24 hours from Day 4, then medium with 10 μM ROCK inhibitor; Day 10 vs Day 4. How it is done: Test Example 3 was performed in the same manner as Test Example 2 (aggregate culture 2 of iPSCs) except that the culture conditions were changed as follows and the procedures shown in FIG. 3 were used. […] Addition of MG: MG was added after the medium was replaced on the 4th day of culture (Day 4). MG treatment time: 24 hours Medium for replacement: Day 4 to 10: the above medium containing 10 μM ROCK inhibitor Day 1 to 3: the above medium containing no ROCK inhibitor

Test [5] deals with MSC cell aggregates. Briefly: Test Example 6: aggregate culture 3 of MSCs (MG 24 hours). In kind it is cell-based. Conditions: MG 1.25-20 mM, treatment time 24 hours from Day 4, then 10 μM ROCK inhibitor medium; Day 15 vs Day 4. How it is done:
Test Example 6 was performed in the same manner as Test Example 5 (aggregate culture 2 of MSCs) except that the culture conditions were changed as follows. […] Addition of MG: MG was added after the medium was replaced on the 4th day of culture (Day 4). MG treatment time: 24 hours Medium for replacement: Day 2, 4: the above medium containing no ROCK inhibitor Day 5, 7, 9, 11, 13, 15: the above medium containing 10 μM ROCK inhibitor

The test system of test [6] is iPS cell aggregates (iPSCs, D2 strain). Briefly: Test Example 2: aggregate culture 2 of iPSCs (MG 20 minutes, then ROCK inhibitor medium). In kind it is cell-based. Conditions: MG 1.25-20 mM, treatment time 20 minutes on Day 4, then medium with 10 μM ROCK inhibitor; Day 10 vs Day 4. As for the experimental part:
Cell: iPSCs (D2 strain, Np17, feeder less) Medium: StemFit (registered trademark) A[…] (manufactured by Takara Bio Inc.) Culture vessel: 96 well V-bottom plate (MS-9096V manufactured by Sumitomo Bakelite Co., Ltd.) Cell density: 200 cells/well Culture condition: 37° C., 5% CO2 Amount of medium: 150 μl/well Culture period: 10 days and (subculture) 5 days (15 days in total) Medium on Day 0: the above medium containing 10 μM ROCK inhibitor Replacement of medium: 75 μl/well (daily) Medium for replacement: Day 4 to 10: the above medium containing 10 μM ROCK inhibitor Day 1 to 3: the above medium containing no ROCK inhibitor Methylglyoxal concentration: 0, 1.25, 2.5, 5, 10, 15, 20 mM Added reagent: Methylglyoxal Solution (product code: […], 1.17 g/mL, 16.25 M, manufactured by Sigma-Aldrich) Addition of MG: MG was added 20 minutes before the medium was replaced on the 4th day of culture (Day 4). MG treatment time: 20 minutes Imaging: video observation with BicStudio (manufactured by NIKON ENGINEERING CO., LTD.) after addition of MG

Consider `O=CC(=O)C[C@H](O)[C@H](O)CO` [3-DG, 3-Deoxyglucosone], for which, in the test with MSC cell aggregates [1], the “cell proliferation rate of the MSC cell aggregate” value is “increased”; the “cell proliferation rate, dependence on concentration” value is on record as “tended to be higher with an increase in the 3-DG/GO concentration”; the “periphery of the cell aggregate (effect of promoting cell proliferation)” value is reported as “expand slightly”.

As for `CC(=O)C=O` [MG, methylglyoxal], the cell proliferation rate entry is “did not change significantly” in the test on MSCs (monolayer culture) and “nearly doubled” in the test on MSC aggregates (MG 0.0075-0.02 mM for 24 hours from Day 4, then 10 μM ROCK inhibitor medium, cell count Day 9, without MG (0 mM) 1.2 times). The “periphery of the cell aggregate (effect of promoting cell proliferation)” value (with HepG2 aggregates; in the test on MSC cell aggregates [3]; in test [4]; in the test on MSC cell aggregates [5]; in test [6]) was “expand slightly” throughout. Further, in test [2] (MG 0.1, 1, 10, 100 mM), the “cell binding properties in the periphery of the cell aggregate, dependence on MG concentration” value is on record as “tended to be further reduced with an increase in the MG concentration”. Moreover, the “cell binding properties in the periphery of the cell aggregate” value in test [2] (MG 0.1-100 mM added once on Day 4, compared to control not treated with MG) is “reduced”. Further, the “periphery (outer circumferential portion) of the cell aggregate, fibrillation state” value in test [2] (MG 0.1-100 mM added once on Day 4, photomicrographs Day 5, 6, 7, compared to control not treated with MG) was “became non-fibrillated (unraveled)”. Further, the “cell proliferation rate, medium containing ROCK inhibitor versus medium containing no ROCK inhibitor” value in the test on MSC aggregates (combination of MG and 10 μM ROCK inhibitor compared with MG without ROCK inhibitor) was “higher”.

`O=CC=O` [GO, glyoxal]: in the test on MSC cell aggregates [1], the “cell proliferation rate of the MSC cell aggregate” value is listed as “increased”; the “cell proliferation rate, dependence on concentration” value was “tended to be higher with an increase in the 3-DG/GO concentration”; the “periphery of the cell aggregate (effect of promoting cell proliferation)” value was “expand slightly”.
